From patent US8202885B2, “Bridged six-membered ring compounds” (Actelion Pharmaceuticals Ltd., priority 2007, dated 2012)

test system: human Cav3.1 Cav3.2 or Cav3.3 channel; assay: In vitro assay T channel (FLIPR calcium fluorescence); type: cell-based; settings: HEK293 cells expressing human Cav3.1, Cav3.2 or Cav3.3; 10 mM Ca2+-induced fluo-4 fluorescence; determined up to 10 μM; read-out: T channel antagonistic activity IC50
Description: The T channel antagonistic activity (IC50 values) of the compounds of formula (I) is determined in accordance with the following experimental method and data are shown in Table 1.
Human embryonic kidney (HEK293) cells expressing the human Cav3.1 Cav3.2 or Cav3.3 channel, respectively, are grown in culture medium (DMEM containing 10% heat-inactivated fetal calf serum (FCS), 100 U/ml penicillin, 100 μg/ml streptomycin and 1 mg/ml G418). The cells are seeded at 20.000 cells/well into 384-well black clear bottom sterile plates (poly-L-lysine-coated, Becton Dickinson). The seeded plates are incubated overnight at 37° C. in 5% CO2. The Ca^2+ solution is prepared as 100 mM stock solution in 100 mM tetraethylammoniumchloride (TEA-chloride), 50 mM HEPES, 2.5 mM CaCl2, 5 mM KCl, 1 mM MgCl2, adjusted to pH 7.2 with TEA-hydroxide, for use in the assay at a final concentration of 10 mM. Antagonists are prepared as 10 mM stock solutions in DMSO, then diluted in 384 w plates first in DMSO, then in 100 mM TEA-chloride, 50 mM HEPES, 2.5 mM CaCl2, 5 mM KCl, 1 mM MgCl2, adjusted to pH 7.2 with TEA-hydroxide, to obtain 9× stocks. On the day of the assay, 25 μl of staining buffer (HBSS containing 20 mM HEPES, 0.375 g/l NaHCO3 and 3 μM of the fluorescent calcium indicator fluo-4 AM (1 mM stock solution in DMSO, containing 10% pluronic) is added to each well of the seeded plate. The 384-well cell-plates are incubated for 60 min at 37° C. in 5% CO2 followed by washing with 2×50 μl per well using HBSS containing 0.1% BSA, 20 mM HEPES, 0.375 g/l NaHCO3, leaving 50 […] of this buffer for equilibration at room temperature (30-60 min). Within the Fluorescent Imaging Plate Reader (FLIPR, Molecular Devices), antagonists are added to the plate in a volume of 6.25 μl/well, incubated for 3 min, and finally 6.25 […] of Ca^2+ solution is added. Fluorescence is measured for each well at 2 second intervals for 8 minutes, and the area under the curve of each fluorescence peak is compared to the area of the fluorescence peak induced by 10 mM Ca^2+ with vehicle in place of antagonist. For each antagonist, the IC50 value (the concentration (in nM) of compound needed to inhibit 50% of the Ca^2+-induced fluorescence response) up to 10 μM is determined.

| Compound | IC50 |
| --- | --- |
| COCCOc1cccc2[nH]c(CCCN(C)CC[C@]3(OC(=O)C(C)C)C[C@H]4CC[C@@H]3C=C4c3ccccc3)nc12 (relative stereo) [Example 63A, rac-Isobutyric acid (1R*,2R*,4R*)-2-[2-({3-[4-(2-methoxy-ethoxy)-1H-benzoimidazol-2-yl]-propyl}-methyl-amino)-ethyl]-5-phenyl-bicyclo[2.2.2]oct-5-en-2-yl ester] | 1.44 µM |
| COc1cc2nc(CCCN(C)CC[C@]3(OC(=O)C(C)C)C[C@H]4CC[C@@H]3C=C4c3ccccc3)[nH]c2cc1OC (relative stereo) [Example 28A, rac-Isobutyric acid (1R*,2R*,4R*)-2-(2-{[3-(5,6-dimethoxy-1H-benzoimidazol-2-yl)-propyl]-methyl-amino}-ethyl)-5-phenyl-bicyclo[2.2.2]oct-5-en-2-yl ester] | 3.46 µM |
| COc1ccc(C)c2nc(CCCN(C)CC[C@]3(OC(=O)C(C)C)C[C@H]4CC[C@@H]3C=C4c3ccccc3)[nH]c12 (relative stereo) [Example 30A, rac-Isobutyric acid (1R*,2R*,4R*)-2-(2-{[3-(7-methoxy-4-methyl-1H-benzoimidazol-2-yl)-propyl]-methyl-amino}-ethyl)-5-phenyl-bicyclo[2.2.2]oct-5-en-2-yl ester] | 1.25 µM |
| COc1ccc(OC)c2[nH]c(CCCN(C)CCC3(OC(=O)C(C)C)CC4CCC3C=C4c3ccccc3)nc12 [Example 70A, Isobutyric acid (1R,2R,4R)-2-(2-{[3-(4,7-dimethoxy-1H-benzoimidazol-2-yl)-propyl]-methyl-amino}-ethyl)-5-phenyl-bicyclo[2.2.2]oct-5-en-2-yl ester or isobutyric acid (1S,2S,4S)-2-(2-{[3-(4,7-dimethoxy-1H-benzoimidazol-2-yl)-propyl]-methyl-amino}-ethyl)-5-phenyl-bicyclo[2.2.2]oct-5-en-2-yl ester] | 0.793 µM |
| CN(CCCc1nc2ccccc2[nH]1)CC[C@]1(O)C[C@H]2CC[C@@H]1C[C@@]21OCc2ccccc21 (relative stereo) [Example 79, rac-(1R*,2R*,4R*,5R*)-5-(2-{[3-(1H-Benzoimidazol-2-yl)-propyl]-methyl-amino}-ethyl)-3′H-spiro(bicyclo[2.2.2]octane-2,1′-isobenzofuran)-5-ol] | 2.92 µM |
| CC(C)C(=O)O[C@@]1(CCN(C)CCCc2nc3cc(Cl)c(Cl)cc3[nH]2)C[C@H]2CC[C@@H]1C=C2c1ccccc1 (relative stereo) [Example 27A, rac-Isobutyric acid (1R*,2R*,4R*)-2-(2-{[3-(5,6-dichloro-1H-benzoimidazol-2-yl)-propyl]-methyl-amino}-ethyl)-5-phenyl-bicyclo[2.2.2]oct-5-en-2-yl ester] | 6.74 µM |
| CC(C)C(=O)O[C@@]1(CCN(C)CCCc2nc3ccccc3[nH]2)C[C@H]2CC[C@@H]1C[C@]21OCc2ccccc21 (relative stereo) [Example 80A, rac-Isobutyric acid (1R*,2S*,4R*,5R*)-5-(2-{[3-(1H-benzoimidazol-2-yl)-propyl]-methyl-amino}-ethyl)-3′H-spiro(bicyclo[2.2.2]octane-2,1′-isobenzofuran)-5-yl ester] | 4.18 µM |
| CO[C@]1(c2ccccc2)C[C@H]2CC[C@@H]1C[C@]2(CCN(C)CCCc1nc2ccccc2[nH]1)OC(=O)C(C)C (relative stereo) [Example 76A, rac-Isobutyric acid (1R*,2R*,4R*,5R*)-2-(2-{[3-(1H-benzoimidazol-2-yl)-propyl]-methyl-amino}-ethyl)-5-methoxy-5-phenyl-bicyclo[2.2.2]oct-2-yl ester] | 2.12 µM |

Second part, the molecule after the results:

| IC50 | Compound |
| --- | --- |
| 3.47 µM | CN(CCCc1nc2ccccc2[nH]1)CC[C@]1(O)C[C@H]2CC[C@@H]1C=C2c1cccs1 (relative stereo) [Example 21, rac-(1R*,2R*,4R*)-2-(2-{[3-(1H-Benzoimidazol-2-yl)-propyl]-methyl-amino}-ethyl)-5-thiophen-2-yl-bicyclo[2.2.2]oct-5-en-2-ol] |
| 6.07 µM | CN(CCCc1nc2ccccc2[nH]1)CC[C@@]1(O)C[C@@H]2CC[C@H]1CN2c1ccccc1 [Example 74, (1S,4S,5R)-5-(2-{[3-(1H-Benzoimidazol-2-yl)-propyl]-methyl-amino}-ethyl)-2-phenyl-2-aza-bicyclo[2.2.2]octan-5-ol] |
| 8.95 µM | CN(CC[C@]1(O)C[C@H]2CC[C@@H]1C=C2c1ccccc1)Cc1nc2ccccc2[nH]1 (relative stereo) [Example 14, rac-(1R*,2R*,4R*)-2-{2-[(1H-Benzoimidazol-2-ylmethyl)-methyl-amino]-ethyl}-5-phenyl-bicyclo[2.2.2]oct-5-en-2-ol] |
| 4.57 µM | COC(=O)c1ccc2[nH]c(CCCN(C)CC[C@]3(OC(=O)C(C)C)C[C@H]4CC[C@@H]3C=C4c3ccccc3)nc2c1 (relative stereo) [Example 20A, rac-2-(3-{[2-((1R*,2R*,4R*)-2-Isobutyryloxy-5-phenyl-bicyclo[2.2.2]oct-5-en-2-yl)-ethyl]-methyl-amino}-propyl)-1H-benzoimidazole-5-carboxylic acid methyl ester] |
| 0.951 µM | COc1cccc2[nH]c(CCCN(C)CC[C@]3(OC(=O)C(C)(C)OC)C[C@H]4CC[C@@H]3C=C4c3ccccc3)nc12 (relative stereo) [Example 26F, rac-2-Methoxy-2-methyl-propionic acid (1R*,2R*,4R*)-2-(2-{[3-(4-methoxy-1H-benzoimidazol-2-yl)-propyl]-methyl-amino}-ethyl)-5-phenyl-bicyclo[2.2.2]oct-5-en-2-yl ester] |
| 4.85 µM | Cc1ccc(C2=C[C@H]3CC[C@@H]2C[C@@]3(O)CCN(C)CCCc2nc3ccccc3[nH]2)cc1 (relative stereo) [Example 6, rac-(1R*,2R*,4R*)-2-(2-{[3-(1H-Benzoimidazol-2-yl)-propyl]-methyl-amino}-ethyl)-5-(4-methyl-phenyl)-bicyclo[2.2.2]oct-5-en-2-ol] |
| 2.09 µM | COc1cccc2[nH]c(CCCN(C)CC[C@]3(OC(=O)C(C)C)C[C@H]4CC[C@@H]3C=C4c3ccccc3)nc12 (relative stereo) [Example 26A, rac-Isobutyric acid (1R*,2R*,4R*)-2-(2-{[3-(4-methoxy-1H-benzoimidazol-2-yl)-propyl]-methyl-amino}-ethyl)-5-phenyl-bicyclo[2.2.2]oct-5-en-2-yl ester] |
| 8.42 µM | Cc1cccc(C2=C[C@H]3CC[C@@H]2C[C@@]3(O)CCN(C)CCCc2nc3ccccc3[nH]2)c1 (relative stereo) [Example 5, rac-(1R*,2R*,4R*)-2-(2-{[3-(1H-Benzoimidazol-2-yl)-propyl]-methyl-amino}-ethyl)-5-(3-methyl-phenyl)-bicyclo[2.2.2]oct-5-en-2-ol] |
| > 10 µM | COc1ccc2[nH]c(CCCN(C)CC[C@]3(O)C[C@H]4CC[C@@H]3C=C4c3ccccc3)nc2c1 (relative stereo) [Example 29, rac-(1R*,2R*,4R*)-2-(2-{[3-(5-Methoxy-1H-benzoimidazol-2-yl)-propyl]-methyl-amino}-ethyl)-5-phenyl-bicyclo[2.2.2]oct-5-en-2-ol] |
| 4.01 µM | COc1ccccc1C1=C[C@H]2CC[C@@H]1C[C@]2(CCN(C)CCCc1nc2ccccc2[nH]1)OC(=O)C(C)C (relative stereo) [Example 23A, rac-Isobutyric acid (1R*,2R*,4R*)-2-(2-{[3-(1H-benzoimidazol-2-yl)-propyl]-methyl-amino}-ethyl)-5-(2-methoxy-phenyl)-bicyclo[2.2.2]oct-5-en-2-yl ester] |
| > 10 µM | COc1ccc(CCCN(C)CC[C@]2(O)C[C@H]3CC[C@@H]2C=C3c2ccccc2)cc1OC (relative stereo) [Example 39, rac-(1R*,2R*,4R*)-2-(2-{[3-(3,4-Dimethoxy-phenyl)-propyl]-methyl-amino}-ethyl)-5-phenyl-bicyclo[2.2.2]oct-5-en-2-ol] |
| 4.23 µM | CC(C)C(=O)OC1(CCN(C)CCCc2nc3ccccc3[nH]2)CC2CCC1C=C2c1ccccc1 [Example 12A, Isobutyric acid (1R,2R,4R)-2-(2-{[3-(1H-benzoimidazol-2-yl)-propyl]-methyl-amino}-ethyl)-5-phenyl-bicyclo[2.2.2]oct-5-en-2-yl ester or isobutyric acid (1S,2S,4S)-2-(2-{[3-(1H-benzoimidazol-2-yl)-propyl]-methyl-amino}-ethyl)-5-phenyl-bicyclo[2.2.2]oct-5-en-2-yl ester] |
